The source of these data is article PMC9611521, “Optimization of Resveratrol Used as a Scaffold to Design Histone Deacetylase (HDAC-1 and HDAC-2) Inhibitors” (Pharmaceuticals, 2022).

Each structure is given as a SMILES string.

System in one data set: not given
Test: not given
Conditions: not given
The melting point is the temperature of the solid-liquid transition. With `Nc1ccccc1NC(=O)c1ccc(/C=C/c2ccccc2)cc1` [Compound (7)], the melting point was in the range of 177 to 179 °C.

Take `NC(=O)c1ccccc1OCc1ccc(C(=O)O)cc1` [Compound (19)]: the melting point is 196.5 to 198.6 °C.

With `NC(=O)c1ccccc1OCc1ccc(C(=O)Nc2ccccc2N)cc1` [Compound (24)], the melting point lay in the range of 162 to 163.7 °C.

The test system of the next data set is SIRT1.
Test: not given
The settings on record: dose-dependent experiments; cited from earlier work. Further details: method as in PMID 30526767.
On to `Oc1ccc(/C=C/c2cc(O)cc(O)c2)cc1` [Resveratrol (RVT), trans-3,5,4′-trihydroxystilbene], for which the “deacetylation rate of SIRT1” value is reported as “increased”.

The next data set has as its system HDAC isoforms.
Test: not given
The arrangement: method as in PMID 24023672. The settings on record: RVT 100 µM, nuclear extract of HeLa cells; cited from earlier work.
As for `Oc1ccc(/C=C/c2cc(O)cc(O)c2)cc1` [Resveratrol (RVT), trans-3,5,4′-trihydroxystilbene], the “inhibition of HDAC-1 and HDAC-10” value was 40%; the “inhibition of HDAC-4 and HDAC-9” value is given as 50%.

The target in the next data set is HDAC-1 (Homo sapiens, UniProt Q13547). The data set is described as follows: Enzymatic HDAC inhibition assay (fluorescence), HDAC-1. The settings on record: compound at 10 µM. Type of data set: biochemical. Here is the method: (§1) Enzymatic assays to evaluate HDAC inhibition were performed, and the design involved three steps: (a) Preliminary screening to identify the most promising compounds; (b) Evaluation by a panel of HDAC isoforms to investigate selectivity; and (c) Determination of IC50 values. Firstly, compounds (4–7; 15–26) were evaluated at 10 µM against HDAC-1 and HDAC-2 (Table 2).
Chain of HDAC-1 (Q13547 whole entry, canonical isoform): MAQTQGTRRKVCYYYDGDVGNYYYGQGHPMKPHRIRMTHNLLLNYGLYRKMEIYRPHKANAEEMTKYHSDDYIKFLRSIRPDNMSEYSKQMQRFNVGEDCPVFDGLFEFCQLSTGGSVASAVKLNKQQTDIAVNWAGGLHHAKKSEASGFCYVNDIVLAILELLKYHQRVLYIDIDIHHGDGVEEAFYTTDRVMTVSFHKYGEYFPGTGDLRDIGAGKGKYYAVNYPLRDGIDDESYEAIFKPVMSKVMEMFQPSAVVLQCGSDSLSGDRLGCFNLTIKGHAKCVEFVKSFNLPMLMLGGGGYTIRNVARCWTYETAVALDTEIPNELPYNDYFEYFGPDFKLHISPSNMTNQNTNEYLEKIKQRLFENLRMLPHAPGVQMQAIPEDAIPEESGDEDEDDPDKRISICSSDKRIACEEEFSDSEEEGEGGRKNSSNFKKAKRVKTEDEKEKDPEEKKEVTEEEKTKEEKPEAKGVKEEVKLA
(§2) The enzymatic assay to evaluate HDAC inhibitory effects for all final compounds against the distinct isoforms was carried out in accordance with the previously described procedures (Lopes et al., 2021). All compounds were initially screened at 10 µM against HDAC-1 and HDAC-2. […] All the compounds were dissolved in DMSO. A serial dilution of the compounds was performed in 100% DMSO with the highest concentration at 1 mM. Each intermediate compound dilution (in 100% DMSO) was diluted 10x in assay buffer to form a 10% DMSO intermediate dilution in HDAC assay buffer. 5 µL of this dilution was added to a 50 µL reaction to bring the final concentration of DMSO to 1% in all the reactions. Three independent experiments were carried out in triplicate for all experiments. The fluorescence intensity was measured at an excitation of 360 nm and emission of 460 nm using a Tecan Infinite M1000 microplate reader, and the percentage of activity was calculated using the formula: % activity = (F − Fb)/(Ft − Fb), where F = the intensity of fluorescence in the presence of the compound. In the absence of the test compound, the fluorescent intensity (Ft) in each dataset was defined as 100% activity, while in the absence of HDAC, the fluorescent intensity (Fb) in each dataset was set to 0% activity.
One may read the inhibition as the drop in the measured response relative to a control, in per cent. Consider `O=C(O)c1ccc(/C=C/c2ccccc2)cc1` [(6)], for which the inhibition at 10 µM stood at 9 ± 1%.

`Nc1ccc(/C=C/c2ccc(C(=O)Nc3ccccc3N)cc2)cc1` [Compound (4)] had an inhibition at 10 µM of 45 ± 1.2%.

`Nc1ccccc1NC(=O)c1ccc(/C=C/c2ccccc2)cc1` [Compound (7)]: the inhibition at 10 µM worked out at 42 ± 0.7%.

Take `O=C(O)c1ccc(COc2ccccc2)cc1` [Compound (15)]: the inhibition at 10 µM is 16 ± 0.6%.

Compound `O=C(O)c1ccc(COc2ccc(O)cc2)cc1` [Compound (17)] returned an inhibition at 10 µM of 12 ± 0.7%.

In turn, `NC(=O)c1ccccc1OCc1ccc(C(=O)O)cc1` [Compound (19)] showed an inhibition at 10 µM of 13 ± 0.9%.

The compound `Nc1ccccc1NC(=O)c1ccc(COc2ccccc2)cc1` [Compound (20)] displayed an inhibition at 10 µM of 87 ± 1.1%.

`Nc1ccccc1NC(=O)c1ccc(CNc2ccccc2)cc1` [Compound (21)] came in with an inhibition at 10 µM of 96 ± 1.3%.

Take `Nc1ccccc1NC(=O)c1ccc(COc2ccc(O)cc2)cc1` [Compound (22)]: the inhibition at 10 µM stood at 96 ± 1.2%.

For the compound `Nc1ccc(OCc2ccc(C(=O)Nc3ccccc3N)cc2)cc1` [Compound (23)], at 10 µM the inhibition was 72 ± 1.1%.

The compound `NC(=O)c1ccccc1OCc1ccc(C(=O)Nc2ccccc2N)cc1` [Compound (24)] had an inhibition at 10 µM of 86 ± 1%.

In turn, `Nc1ccccc1NC(=O)c1ccc(COc2ccc(N3C(=O)c4ccccc4C3=O)cc2)cc1` [Compound (25)] displayed an inhibition at 10 µM of 14 ± 0.5%.

On to `Nc1ccccc1NC(=O)c1ccc(COc2ccc(N3C(=O)c4cccc([N+](=O)[O-])c4C3=O)cc2)cc1` [Compound (26)], for which at 10 µM the inhibition was 1 ± 0.5%.

In the next data set the target is HDAC-2 (Homo sapiens, UniProt Q92769). The data set is described as follows: Enzymatic HDAC inhibition assay (fluorescence), HDAC-2. Type of data set: biochemical. The settings on record: compound at 10 µM. Here is the method: as §1, §2
Chain of HDAC-2 (Q92769 whole entry): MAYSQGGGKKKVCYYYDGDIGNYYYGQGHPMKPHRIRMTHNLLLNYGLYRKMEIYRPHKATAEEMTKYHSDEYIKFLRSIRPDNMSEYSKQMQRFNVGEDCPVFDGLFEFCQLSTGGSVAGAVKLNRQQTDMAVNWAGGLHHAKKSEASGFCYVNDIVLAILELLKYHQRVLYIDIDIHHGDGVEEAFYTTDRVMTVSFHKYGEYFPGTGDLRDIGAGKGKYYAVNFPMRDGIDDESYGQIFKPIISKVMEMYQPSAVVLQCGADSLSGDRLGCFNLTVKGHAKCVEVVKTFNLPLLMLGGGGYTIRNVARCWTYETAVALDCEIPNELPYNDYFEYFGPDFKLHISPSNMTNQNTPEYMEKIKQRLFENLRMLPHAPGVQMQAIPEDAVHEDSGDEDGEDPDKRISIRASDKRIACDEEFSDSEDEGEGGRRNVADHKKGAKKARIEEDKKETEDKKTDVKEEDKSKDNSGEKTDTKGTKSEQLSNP
`O=C(O)c1ccc(/C=C/c2ccccc2)cc1` [(6)] showed an inhibition at 10 µM of 0%.

As for `Nc1ccc(/C=C/c2ccc(C(=O)Nc3ccccc3N)cc2)cc1` [Compound (4)], the inhibition at 10 µM was 28 ± 1%.

Regarding `Nc1ccccc1NC(=O)c1ccc(/C=C/c2ccccc2)cc1` [Compound (7)], the inhibition at 10 µM stood at 32 ± 0.7%.

The compound `O=C(O)c1ccc(COc2ccccc2)cc1` [Compound (15)] registered an inhibition at 10 µM of 11%.

`O=C(O)c1ccc(COc2ccc(O)cc2)cc1` [Compound (17)] showed an inhibition at 10 µM of 11 ± 0.5%.

`NC(=O)c1ccccc1OCc1ccc(C(=O)O)cc1` [Compound (19)] had an inhibition at 10 µM of 8 ± 0.6%.

The compound `Nc1ccccc1NC(=O)c1ccc(COc2ccccc2)cc1` [Compound (20)] returned an inhibition at 10 µM of 85 ± 1.1%.

`Nc1ccccc1NC(=O)c1ccc(CNc2ccccc2)cc1` [Compound (21)] showed an inhibition at 10 µM of 93 ± 1.2%.

Take `Nc1ccccc1NC(=O)c1ccc(COc2ccc(O)cc2)cc1` [Compound (22)]: 10 µM produced 92 ± 0.7% inhibition.

In the case of `Nc1ccc(OCc2ccc(C(=O)Nc3ccccc3N)cc2)cc1` [Compound (23)], the inhibition at 10 µM was 52 ± 0.8%.

The compound `NC(=O)c1ccccc1OCc1ccc(C(=O)Nc2ccccc2N)cc1` [Compound (24)] displayed an inhibition at 10 µM of 81 ± 1.1%.

`Nc1ccccc1NC(=O)c1ccc(COc2ccc(N3C(=O)c4ccccc4C3=O)cc2)cc1` [Compound (25)] registered an inhibition at 10 µM of 21 ± 0.8%.

The compound `Nc1ccccc1NC(=O)c1ccc(COc2ccc(N3C(=O)c4cccc([N+](=O)[O-])c4C3=O)cc2)cc1` [Compound (26)] returned an inhibition at 10 µM of 6 ± 0.6%.

Still in this data set, the particulars now being: compound at 10 µM; 10 µM.
As for `O=C(O)c1ccc(COc2ccccc2)cc1` [Compound (15)], the HDAC-2 inhibition was found to be 10 ± 0.5%.
